Results as given in PubChem BioAssay AID977628 (Broad Institute, 2014).
Records with an inconclusive call do not appear. The source made the active and inactive calls.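 The calls were made as follows: active = compound lowering the normal-ribosome reporter at least twice as much as the humanized-ribosome reporter, growth loss under a set limit; inconclusive = no clear call, values can overlap the other calls; inactive = the rest.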

Legend:
[1] = test system: E. coli WT GFP strain growth, fluorescence, 24 h; test: growth of wild-type and h24-humanized E. coli strains – h24 mutant RFP vs wild-type GFP, cherry-pick, dose response (AID 977628)
[2] = test system: E. coli mixed WT/h24 culture total growth, OD600, 24 h; test: as above

In the case of `CC1(C(=O)NS(=O)(=O)c2cccc(Cl)c2)CCN1C(=O)C1(c2ccc(Cl)cc2)CCC1` (stereo not drawn), the AC50 [1] is reported as > 100 µM (inactive) and the AC50 [2] is reported as over 100 µM.
With `Cc1nc([N+](=O)[O-])c(Br)n1CC(=O)c1ccc(F)cc1` the AC50 [1] was > 100 µM (inactive) and the AC50 [2] was over 100 µM.
In the case of `CCOC(=O)c1nc(C)sc1-c1ccnn1S(=O)(=O)c1cccc(Cl)c1`, the AC50 [1] is reported as > 100 µM (inactive) and the AC50 [2] is reported as 41.7 µM.
For `COc1cc(OC)cc(C(=O)Nc2ccc(S(=O)(=O)Nc3cnc4ccccc4n3)cc2)c1`, the AC50 [1] was > 100 µM (inactive) and the AC50 [2] was 42.2 µM.
In the case of `Cc1cc(NC(=O)COC(=O)CSCc2ccc(Cl)c(Cl)c2)no1`, the AC50 [1] is reported as > 100 µM (inactive) and the AC50 [2] is reported as over 100 µM.
`NC(=O)C1Cc2ccccc2CN1C(=O)c1cc(C2CC2)nn1-c1ccccc1` (stereo not drawn) was tested, and the AC50 [1] was > 100 µM (inactive) and the AC50 [2] was 46.8 µM.
`O=C(Nc1ccc2c(c1)OCO2)c1cccc(S(=O)(=O)N2CCCC2)c1` was tested, and the AC50 [1] was > 100 µM (inactive) and the AC50 [2] was over 100 µM.
`CCOc1ccc(S(=O)(=O)Nc2ccc(S(=O)(=O)N3CCCC3)cc2)cc1` was tested, and the AC50 [1] was > 100 µM (inactive) and the AC50 [2] was 40.8 µM.
With `CCN(CC(=O)Nc1ccccc1OC)CC(=O)Nc1c(Cl)ccc(C)c1Cl` the AC50 [1] was > 100 µM (inactive) and the AC50 [2] was over 100 µM.
In the case of `COc1cc(NC(=O)CSCc2ccc(Cl)cc2Cl)c(C(=O)O)cc1OC`, the AC50 [1] is reported as > 100 µM (inactive) and the AC50 [2] is reported as over 100 µM.
In the case of `COc1ccc(-c2nc3ccc(Cl)cn3c2Cc2cccc(F)c2)cc1OC`, the AC50 [1] is reported as > 100 µM (inactive) and the AC50 [2] is reported as 51.6 µM.
`CN(C)Cc1nc2ccccc2c(=O)n1Cc1nc(-c2cccc([N+](=O)[O-])c2)cs1` was tested, and the AC50 [1] was > 100 µM (inactive) and the AC50 [2] was over 100 µM.
With `CC(C)Oc1cccc(C(=O)C2CCCN(C(=O)c3cc(C(F)(F)F)[nH]n3)C2)c1` (stereo not drawn) the AC50 [1] was > 100 µM (inactive) and the AC50 [2] was 51.3 µM.
`O=c1c2ccccc2cnn1Cc1n[nH]c(=S)n1C1CC2CCC1C2` (stereo not drawn) was tested, and the AC50 [1] was > 100 µM (inactive) and the AC50 [2] was over 100 µM.
With `CCOc1ccc(CCNC(=O)CCc2nc3ccccc3[nH]2)cc1OCC` the AC50 [1] was > 100 µM (inactive) and the AC50 [2] was over 100 µM.
`COc1ccc(C2=Nc3ccccc3NC(=O)C2N(C(=O)c2ccnc3ccccc23)c2ccccc2)cc1` (stereo not drawn) was tested, and the AC50 [1] was > 100 µM (inactive) and the AC50 [2] was 43 µM.
With `Cc1c(C(=O)N(Cc2ccc(F)cc2)C2CCS(=O)(=O)C2)oc2ccccc12` (stereo not drawn) the AC50 [1] was > 100 µM (inactive) and the AC50 [2] was over 100 µM.
`O=C(Nc1cccc(S(=O)(=O)N2CCCCC2)c1)c1ccc(Cl)nc1` was tested, and the AC50 [1] was > 100 µM (inactive) and the AC50 [2] was over 100 µM.
For `CCSc1nc2ccccc2c(=O)n1Cc1ccc(F)cc1`, the AC50 [1] was > 100 µM (inactive) and the AC50 [2] was 45.7 µM.
In the case of `CCOC(=O)C(CC)Sc1cc(C)nc2ccc(OC)cc12` (stereo not drawn), the AC50 [1] is reported as > 100 µM (inactive) and the AC50 [2] is reported as over 100 µM.
In the case of `COc1ccc(-c2nnn(CC(=O)N3CCN(c4ccccc4OC)CC3)n2)cc1OC`, the AC50 [1] is reported as > 100 µM (inactive) and the AC50 [2] is reported as over 100 µM.
For `O=C(NCc1ccc(-c2nc3ccccc3s2)cc1)c1ccco1`, the AC50 [1] was > 100 µM (inactive) and the AC50 [2] was 4.43 µM.
For `C=CCn1c(-c2cc3cccc(OC)c3o2)n[nH]c1=S`, the AC50 [1] was > 100 µM (inactive) and the AC50 [2] was over 100 µM.
With `CCOc1cccc2sc(N(CCCN(C)C)C(=O)c3ccc(S(=O)(=O)N4CCCCCC4)cc3)nc12` the AC50 [1] was > 100 µM (inactive) and the AC50 [2] was over 100 µM.
For `O=C(CSCc1c(Cl)cccc1Cl)Nc1cccnc1`, the AC50 [1] was > 100 µM (inactive) and the AC50 [2] was over 100 µM.
For `O=C(Cc1cccc(NC(=O)C2CCCN(C(=O)CCc3ccccc3)C2)c1)Nc1cccc(C(=O)N2CCCC2)c1` (stereo not drawn), the AC50 [1] was > 100 µM (inactive) and the AC50 [2] was over 100 µM.
With `Cc1cccc(C)c1-n1nnnc1C1(C)CCC(=O)N1Cc1cccs1` (stereo not drawn) the AC50 [1] was > 100 µM (inactive) and the AC50 [2] was over 100 µM.
For `C[C@@H]1CN([C@@H](C)CO)C(=O)c2cccc(NC(=O)Nc3ccccc3)c2O[C@@H]1CN(C)S(=O)(=O)c1ccc(Cl)cc1`, the AC50 [1] was > 100 µM (inactive) and the AC50 [2] was 49.6 µM.
`Cc1ccc2nc(N(CCN(C)C)C(=O)C3CCN(S(=O)(=O)c4cccs4)CC3)sc2c1` was tested, and the AC50 [1] was > 100 µM (inactive) and the AC50 [2] was over 100 µM.
